The values below come from EPA's ToxValDB 9.5 (doi:10.2903/j.efsa.2009.339r).

One data set deals with Rattus norvegicus. The following applies: acute; oral; mortality.
The next data set has as its system Apis mellifera. The following applies: acute; duration: 48 hours; oral; unspecified; mortality.
The conditions of data set [1]: reproductive; oral; feed.
The next data set relates to Canidae. The following applies: chronic; duration: 1 years; oral; Dog Other; clinical chemistry.
The subject of another data set is Tagia sp. The conditions noted are these: acute; mortality.
The test system of a further data set is Bibionidae. The conditions noted are these: chronic/long-term; duration: 28 days.
The test system of a further data set is Daphnia magna. The following applies: chronic/long-term; duration: 21 days; reproduction.
The test system of the next data set is Typhlodromus pyri. The data set can be described thus: LR50; higher = less toxic. The following applies: acute; duration: 14 days; mortality.

Where only a bound is given, the exact number is not on record here.

Turning to `CCC(C)(C)C(=O)OC1=C(c2ccc(Cl)cc2Cl)C(=O)OC12CCCCC2` [Spirodiclofen], the LD50 is > 2500 mg/kg in the data set with Rattus norvegicus; > 2000 mg/kg with Colinus virginianus (acute, oral, mortality); > 196 µg/piece in the data set on Apis mellifera. For the same compound, the LC50 in the data set with Colinus virginianus (acute, oral, diet, mortality) is > 1060 mg/kg-day; in the data set on Oncorhynchus mykiss (acute, duration: 96 hours, mortality) it was > 0.0351 µg/mL; with Anas platyrhynchos (short-term, oral, feed, mortality) it was > 2270 mg/kg-day; with Tagia sp. it was > 1000 mg/kg. Moreover, the NOEC in the data set on Colinus virginianus (reproduction developmental) is 51 mg/kg-day; in the data set with Oncorhynchus mykiss (chronic/long-term, duration: 97 days, time to hatch), 0.00195 mg/L; in data set [1], 6 mg/kg-day; with Anas platyrhynchos (reproductive), 111 mg/kg-day; with Bibionidae, 0.032 mg/L; in the data set with Daphnia magna it was 0.0111 mg/L. In the data set with Canidae, this compound showed an NOAEL of 1.45 mg/kg-day. Also, the LR50 with Typhlodromus pyri was 2.4 g/ha.
